Results reported in PubChem BioAssay (NCI).
“And” between values parts separate entries of the source, which are not always exact repeats. Equal values may be shown once.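 All cell lines were grown in 96-well plates and treated with compound for 48 hours. The concentration for 50% growth inhibition is given as GI50. TGI: concentration producing complete growth inhibition.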

Experiments:
Experiment in all cases: NCI anticancer screen, dose series, 48 h
MALME-3M melanoma = system: MALME-3M melanoma
HOP-62 NSCLC = system: HOP-62 NSCLC
NCI/ADR-RES ovarian = system: NCI/ADR-RES ovarian
HS 578T breast = system: HS 578T breast
UACC-62 melanoma = system: UACC-62 melanoma
SK-MEL-5 melanoma = system: SK-MEL-5 melanoma
PC-3 prostate = system: PC-3 prostate
A549 NSCLC = system: A549 NSCLC
ACHN renal = system: ACHN renal
HT29 colon = system: HT29 colon

| SMILES | GI50 (MALME-3M melanoma) [µM] | TGI (MALME-3M melanoma) | GI50 (HOP-62 NSCLC) | TGI (HOP-62 NSCLC) | GI50 (NCI/ADR-RES ovarian) [µM] | TGI (NCI/ADR-RES ovarian) [µM] | GI50 (HS 578T breast) [µM] | TGI (HS 578T breast) [µM] | GI50 (UACC-62 melanoma) | TGI (UACC-62 melanoma) | GI50 (SK-MEL-5 melanoma) [µM] | TGI (SK-MEL-5 melanoma) [µM] | GI50 (PC-3 prostate) [µM] | TGI (PC-3 prostate) [µM] | GI50 (A549 NSCLC) | TGI (A549 NSCLC) | GI50 (ACHN renal) | TGI (ACHN renal) | GI50 (HT29 colon) | TGI (HT29 colon) |
| --- | --- | --- | --- | --- | --- | --- | --- | --- | --- | --- | --- | --- | --- | --- | --- | --- | --- | --- | --- | --- |
| NC(N)=N/N=C(/c1ccccc1)c1ccc(Cl)cc1 | 53.3 | > 100 µM | 30.4 µM | > 100 µM | 24.4 | 85.9 | 8.57 | 51.7 | 22.4 µM | > 100 µM | 5.97 | 44.9 | 3.84 | > 100 | 15.5 µM | > 100 µM | 40.6 µM | > 100 µM | 2.93 µM | 24.9 µM |
| O=C1CSC(=S)N1Cc1cccnc1 | 6.71 | 25.6 µM | 47 µM | > 100 µM | 24 | > 100 | 17 | 66.1 | 11.3 µM | 24.7 µM | 24.5 | 71.6 | 16.2 | > 100 | 23.9 µM | 58.9 µM | 6.14 µM | 19.5 µM | 3.9 µM | 11.9 µM |
| O=C1/C(=C/c2ccc([N+](=O)[O-])o2)Oc2ccccc21 | 1.86 | 3.78 µM | 2.22 µM | 6.42 µM | 3.08 | 11.7 | 2.88 | 21.4 | 1.47 µM | 2.93 µM | 1.69 | 3.29 | 2.25 | 7.12 | 3.23 µM | 12.3 µM | 0.895 µM | 2.17 µM | 0.613 µM | 2.84 µM |
| CC(C)=CCc1ccc(O)c(=O)cc1C(C)C | 0.966 | 9.39 µM | 0.685 µM | > 100 µM | 0.336 | 2.74 | 48.1 | > 100 | 0.493 µM | 4.38 µM | 0.582 | 4.08 | 1.13 | > 100 | 0.656 µM | > 100 µM | 0.484 µM | > 100 µM | 1.51 µM | > 100 µM |
| COc1ccc2c(c1)C(=O)/C(=C/c1ccc([N+](=O)[O-])s1)O2 | 0.451 | 1.76 µM | 1.07 µM | 3.47 µM | 0.873 | > 100 | 0.269 | – | 0.311 µM | 1.16 µM | 0.326 | 1.04 | 0.283 | – | 1.06 µM | 4.07 µM | 0.263 µM | 0.722 µM | 0.502 µM | 2.67 µM |
| O=C(N/N=c1/ccoc2cccnc12)N1CCN(c2ncccn2)CC1 | 1.17 | 7.22 µM | 0.0436 µM | 7.42 µM | < 0.0193 | 12.3 | 1.07 | 24.5 | 0.457 µM | 5.12 µM | 0.383 | 2.97 | < 0.01 | 6.38 | 0.324 µM | 9.81 µM | 0.0145 µM | 13.2 µM | < 0.01 µM | 7.39 µM |
| c1ccc2c(Nc3ccc(Oc4ccc(Nc5c6ccccc6nc6ccccc56)cc4)cc3)c3ccccc3nc2c1 | 2.08 | 3.02 µM and 3.82 µM | 0.301 µM and 1.74 µM | 1.09 µM and 3.12 µM | – | 0.156 | – | 5.04 | 1.54 µM and 0.182 µM | 3.02 µM and 0.36 µM | – | 3.4 | – | 0.366 | 0.265 µM and 0.227 µM | 0.792 µM and 0.54 µM | 0.0309 µM and 0.133 µM | 0.101 µM and 0.26 µM | 0.237 µM and 0.212 µM | 0.569 µM and 0.496 µM |
| CC(C)=CC(O)C/C(C)=C/CC/C(C)=C/CCC1(C)C(CCCO)/C(=C(/C)C=O)CCC1(C)O (stereo not drawn) | – | > 100 µM | – | 88.6 µM | – | > 100 | – | > 100 | – | > 100 µM | – | > 100 | – | > 100 | – | > 100 µM | – | 43.6 µM | – | 70.9 µM |
| C=C(C)[C@@H]1CC[C@]2(C(=O)O)CC[C@]3(C)[C@H](CC[C@@H]4[C@@]5(C)C[C@@H](CC#Cc6ccc(Br)cc6)C(=O)C(C)(C)[C@@H]5CC[C@]43C)[C@@H]12 | 3.48 | 14.1 µM | 12.4 µM | 38.4 µM | 62.6 | > 100 | 6.26 | > 100 | 2.69 µM | 8.34 µM | 34.2 | > 100 | 3.31 | 15.2 | 2.8 µM | > 100 µM | 13.5 µM | > 100 µM | 4.83 µM | > 100 µM |
| CCCCCCCCCCCCCCCCOC(=O)c1c(C)[nH]c(/C=C2\N=C(c3ccc[nH]3)C=C2OC)c1C | 3.67 | 29.8 µM | 2.89 µM | 12.8 µM | 0.735 | 19.9 | 1.41 | 9.38 | 0.235 µM | 0.62 µM | 0.119 | 0.703 | 0.162 | > 100 | 0.239 µM | 12.8 µM | 1.65 µM | 14.9 µM | 0.083 µM | > 100 µM |
| COc1cc2c3c(n(CCCNC(=O)OCC4c5ccccc5-c5ccccc54)c(=O)c2cc1OC)-c1cc2c(cc1C3=O)OCO2 | 93.3 | > 100 µM | 13.7 µM | > 74 µM | > 100 | > 100 | 22.8 | > 100 | 33.4 µM | > 61.2 µM | 28.2 | > 100 | > 100 | > 100 | > 100 µM | > 100 µM | 0.376 µM | 6.25 µM | > 100 µM | > 100 µM |
| COc1cc(Nc2ncc3c(C)nc(-c4cccc(Oc5ccccc5)c4)n3n2)cc(OC)c1OC | 5.32 | 18.7 µM | 10.6 µM | > 25 µM | 6.36 | > 25 | 7.51 | > 25 | 3.3 µM | > 13.8 µM | 3.28 | 6.74 | 5.1 | 24.6 | 6.32 µM | > 25 µM | 1.33 µM | 17.9 µM | 5.71 µM | 16.3 µM |
| N#Cc1c(NC(=O)c2cccc3ccccc23)sc2c1CCCC2 | 0.0174 | > 25 µM | 0.0825 µM | > 25 µM | 0.0128 | 0.117 | 0.0156 | – | 0.018 µM | > 25 µM | 0.0844 | 1.62 | 0.079 | > 25 | 0.0788 µM | > 25 µM | 0.34 µM | > 25 µM | 0.0716 µM | 0.224 µM |
